Measured values reported in patent publication US5373015A, “Fused pyridine derivatives useful as angiotensin II antagonists” (Imperial Chemical Industries PLC, priority 1991, dated 1994).

Target: T1, AII receptors (Cavia porcellus, UniProt Q9WV26)
T1 construct: from tissue; host or cells: guinea pig adrenal gland, cell surface membrane fraction
T1 sequence (Q9WV26 1-359): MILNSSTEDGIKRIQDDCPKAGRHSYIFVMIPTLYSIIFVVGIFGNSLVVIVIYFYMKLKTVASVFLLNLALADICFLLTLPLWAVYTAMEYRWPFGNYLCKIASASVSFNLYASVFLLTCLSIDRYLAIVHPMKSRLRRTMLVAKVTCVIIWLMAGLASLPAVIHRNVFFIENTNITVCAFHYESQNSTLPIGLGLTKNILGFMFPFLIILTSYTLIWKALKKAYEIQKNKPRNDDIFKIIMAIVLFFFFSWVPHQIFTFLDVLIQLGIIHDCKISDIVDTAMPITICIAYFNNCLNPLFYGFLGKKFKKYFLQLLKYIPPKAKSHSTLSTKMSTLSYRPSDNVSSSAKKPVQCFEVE
Experiment: Test A: displacement of radiolabelled AII binding from guinea pig adrenal gland membrane fraction
Settings: guinea pig adrenal gland membranes; read-out: IC50 (concentration for 50% displacement of radiolabelled AII binding)
Description: This in vitro procedure involves the incubation of the test compound initially at a concentration of 100 micromolar (or less) in a buffered mixture containing fixed concentrations of radiolabelled AII and a cell surface membrane fraction prepared from a suitable angiotensin target tissue. In this test, the source of cell surface membranes is the guinea pig adrenal gland which is well known to respond to AII. Interaction of the radiolabelled AII with its receptors (assessed as radiolabel bound to the particulate membrane fraction following removal of unbound radiolabel by a rapid filtration procedure such as is standard in such studies) is antagonized by compounds which also bind to the membrane receptor sites and the degree of antagonism (observed in the test as displacement of membrane-bound radioactivity) is determined readily by comparing the receptor-bound radioactivity in the presence of the test compound at the specified test concentration with a control value determined in the absence of the test compound. Using this procedure compounds showing at least 50% displacement of radiolabelled AII binding at a concentration of 10^4 M are retested at lower concentrations to determine their potency. […]

`CCc1cc2c(ccc(=O)n2Cc2ccc(OC(C(=O)O)c3ccccc3)cc2)c(CC)n1` (stereo not shown) [Example 2] showed an IC50 of 270 nM.
